Results as given in ChEMBL document CHEMBL3046266, “Synthesis of curcumin and ethylcurcumin bioconjugates as potential antitumor agents” (Med Chem Res, 2012).
Calls of active or inactive are those of the source. The calls are words filed in the database; no cut-off is given here.

Columns and labels:
BT-549 [1] = assay: Cytotoxicity against Homo sapiens (human) BT549 cells up to 25 uM by neutral red staining; assay type: functional, cell-based
LLC-PK1 [2] = assay: Cytotoxicity against Sus scrofa (pig) LLC-PK1 cells up to 25 uM by neutral red staining; assay type: cell-based
Vero = assay: Cytotoxicity against Chlorocebus aethiops (African green monkey) Vero cells up to 25 uM by neutral red staining; assay type: cell-based; conditions: chlorocebus sabaeus
[3] = target: T1, DNA topoisomerase 1 (Homo sapiens) (UniProt P11387); assay: Inhibition of Homo sapiens (human) topoisomerase 1 assessed as production of nicked DNA up to 25 uM by agarose gel electrophoresis
T1 sequence (whole entry): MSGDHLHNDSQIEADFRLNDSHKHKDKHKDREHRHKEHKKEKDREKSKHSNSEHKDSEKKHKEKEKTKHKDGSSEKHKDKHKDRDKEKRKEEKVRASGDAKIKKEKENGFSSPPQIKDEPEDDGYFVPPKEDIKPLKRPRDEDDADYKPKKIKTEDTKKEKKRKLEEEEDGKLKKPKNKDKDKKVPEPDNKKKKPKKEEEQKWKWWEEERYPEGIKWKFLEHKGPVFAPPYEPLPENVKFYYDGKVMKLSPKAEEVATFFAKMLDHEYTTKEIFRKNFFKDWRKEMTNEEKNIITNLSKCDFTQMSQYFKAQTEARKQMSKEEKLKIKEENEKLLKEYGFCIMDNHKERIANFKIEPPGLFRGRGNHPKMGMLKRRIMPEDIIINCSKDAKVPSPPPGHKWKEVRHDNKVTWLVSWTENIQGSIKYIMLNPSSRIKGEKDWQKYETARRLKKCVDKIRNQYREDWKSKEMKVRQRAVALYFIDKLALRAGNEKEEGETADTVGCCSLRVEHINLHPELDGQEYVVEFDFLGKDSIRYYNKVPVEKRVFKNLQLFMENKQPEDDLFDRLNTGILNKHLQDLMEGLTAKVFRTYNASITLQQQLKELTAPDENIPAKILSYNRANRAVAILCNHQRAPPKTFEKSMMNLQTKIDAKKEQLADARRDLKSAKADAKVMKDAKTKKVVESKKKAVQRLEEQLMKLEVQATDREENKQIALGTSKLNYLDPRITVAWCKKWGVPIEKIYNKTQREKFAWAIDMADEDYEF

SK-MEL [4] = assay: Cytotoxicity against Homo sapiens (human) SK-MEL cells up to 25 uM by neutral red staining; assay type: functional, cell-based
KB [5] = assay: Cytotoxicity against Homo sapiens (human) KB cells up to 25 uM by neutral red staining; assay type: functional, cell-based
[6] = target: T1, DNA topoisomerase 1 (Homo sapiens); assay: Inhibition of Homo sapiens (human) topoisomerase 1 assessed as relaxation of supercoiled DNA up to 25 uM by agarose gel electrophoresis
SK-OV-3 = assay: Cytotoxicity against Homo sapiens (human) SKOV3 cells up to 25 uM by neutral red staining; assay type: functional, cell-based
[7] = target: DNA topoisomerase 2-alpha (Homo sapiens, UniProt P11388); assay: Inhibition of Homo sapiens (human) topoisomerase 2 assessed as decatenation of KDNA by agarose gel electrophoresis
SK-MEL [8] = assay: Cytotoxicity against Homo sapiens (human) SK-MEL cells by neutral red staining; assay type: functional, cell-based
LLC-PK1 [9] = assay: Cytotoxicity against Sus scrofa (pig) LLC-PK1 cells by neutral red staining; assay type: cell-based
BT-549 [10] = assay: Cytotoxicity against Homo sapiens (human) BT549 cells by neutral red staining; assay type: functional, cell-based
KB [11] = assay: Cytotoxicity against Homo sapiens (human) KB cells by neutral red staining; assay type: functional, cell-based

DNA topoisomerase 2-alpha, sequence (P11388 whole entry): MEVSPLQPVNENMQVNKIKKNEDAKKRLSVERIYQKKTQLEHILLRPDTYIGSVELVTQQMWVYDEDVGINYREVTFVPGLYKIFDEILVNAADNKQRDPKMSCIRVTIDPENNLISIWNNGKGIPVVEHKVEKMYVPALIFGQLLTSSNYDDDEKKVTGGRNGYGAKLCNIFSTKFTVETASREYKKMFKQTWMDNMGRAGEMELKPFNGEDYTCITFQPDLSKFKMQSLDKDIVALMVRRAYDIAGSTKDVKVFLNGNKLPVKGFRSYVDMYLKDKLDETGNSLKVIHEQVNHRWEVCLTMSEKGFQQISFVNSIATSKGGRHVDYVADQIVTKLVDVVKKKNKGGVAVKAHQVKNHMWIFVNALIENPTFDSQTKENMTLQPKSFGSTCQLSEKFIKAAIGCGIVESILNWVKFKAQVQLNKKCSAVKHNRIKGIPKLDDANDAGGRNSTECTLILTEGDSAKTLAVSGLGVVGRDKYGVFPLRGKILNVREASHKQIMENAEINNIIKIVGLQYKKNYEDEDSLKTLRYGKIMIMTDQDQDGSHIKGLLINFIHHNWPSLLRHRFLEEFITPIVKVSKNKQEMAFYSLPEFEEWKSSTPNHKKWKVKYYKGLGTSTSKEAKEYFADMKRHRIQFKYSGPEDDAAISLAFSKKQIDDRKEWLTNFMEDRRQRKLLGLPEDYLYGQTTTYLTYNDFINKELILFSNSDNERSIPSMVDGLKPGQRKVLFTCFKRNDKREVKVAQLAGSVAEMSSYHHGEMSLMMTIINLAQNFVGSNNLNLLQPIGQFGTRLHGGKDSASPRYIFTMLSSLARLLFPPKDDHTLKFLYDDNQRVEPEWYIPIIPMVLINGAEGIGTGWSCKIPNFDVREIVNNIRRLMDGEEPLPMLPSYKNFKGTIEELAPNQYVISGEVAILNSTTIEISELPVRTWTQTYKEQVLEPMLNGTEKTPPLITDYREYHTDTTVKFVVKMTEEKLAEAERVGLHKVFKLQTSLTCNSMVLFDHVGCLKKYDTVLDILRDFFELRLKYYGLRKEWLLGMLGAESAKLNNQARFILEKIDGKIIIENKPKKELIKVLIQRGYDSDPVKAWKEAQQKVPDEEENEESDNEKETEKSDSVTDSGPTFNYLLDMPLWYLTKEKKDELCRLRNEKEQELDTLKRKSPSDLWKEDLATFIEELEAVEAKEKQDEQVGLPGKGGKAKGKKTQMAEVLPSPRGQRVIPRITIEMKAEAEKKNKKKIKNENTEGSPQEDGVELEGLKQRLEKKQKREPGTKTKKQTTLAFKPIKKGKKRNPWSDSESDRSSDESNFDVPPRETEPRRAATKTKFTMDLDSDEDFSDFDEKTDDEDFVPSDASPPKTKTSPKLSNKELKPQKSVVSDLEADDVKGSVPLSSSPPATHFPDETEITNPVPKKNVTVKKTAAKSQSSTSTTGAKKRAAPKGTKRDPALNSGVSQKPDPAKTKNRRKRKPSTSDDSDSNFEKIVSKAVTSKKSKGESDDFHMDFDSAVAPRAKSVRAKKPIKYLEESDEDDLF

inhibition [3]	inhibition [6]	IC50 [7] [µM]	Structure (SMILES)	Activity (BT-549 [1])	Activity (LLC-PK1 [2])	Activity (Vero)	Activity (SK-MEL [4])	Activity (KB [5])	Activity (SK-OV-3)	IC50 (SK-MEL [8]) [µM]	IC50 (LLC-PK1 [9]) [µM]	IC50 (BT-549 [10]) [µM]	IC50 (KB [11]) [µM]
inactive	inactive	4.5	COc1cc(/C=C/C(=O)CC(=O)/C=C/c2ccc(OC(=O)C34CC5CC(CC(C5)C3)C4)c(OC)c2)ccc1OC(=O)C12CC3CC(CC(C3)C1)C2 [DI-O-ADAMANTOYLCURCUMIN]	inactive	Non-toxic	Non-toxic	inactive	inactive	inactive				
inactive	inactive	15	COc1ccc2nc(NCC(=O)Oc3ccc(/C=C/C(=O)CC(=O)/C=C/c4ccc(OC(=O)CNc5nc6ccc(OC)cc6s5)c(OC)c4)cc3OC)sc2c1			Non-toxic			inactive	15	22.5	18.1	23
inactive	inactive	15	COc1cc(/C=C/C(=O)CC(=O)/C=C/c2ccc(O)c(OC)c2)ccc1O [CURCUMIN]		Non-toxic	Non-toxic			inactive	13.8		10.5	> 25
inactive	inactive	7.1	CCOc1cc(/C=C/C(=O)CC(=O)/C=C/c2ccc(OC(=O)CCNCCN(CC)CC)c(OCC)c2)ccc1OC(=O)CCNCCN(CC)CC	inactive	Non-toxic	Non-toxic	inactive	inactive	inactive				
inactive	inactive	18	COc1cc(/C=C/C(=O)CC(=O)/C=C/c2ccc(OC(=O)CCNC34CC5CC(CC(C5)C3)C4)c(OC)c2)ccc1OC(=O)CCNC12CC3CC(CC(C3)C1)C2		Non-toxic	Non-toxic			inactive	18.5		20.5	> 25
inactive	inactive	2.9	CCCCCCC(=O)Oc1ccc(/C=C/C(=O)CC(=O)/C=C/c2ccc(OC(=O)CCCCCC)c(OC)c2)cc1OC [DI-O-HEPTANOYLCURCUMIN]	inactive	Non-toxic	Non-toxic	inactive	inactive	inactive				
inactive	inactive	3	CCCCCCC(=O)Oc1ccc(/C=C/C(=O)CC(=O)/C=C/c2ccc(OC(=O)CCCCCC)c(OCC)c2)cc1OCC [DI-O-HEPTANOYLETHYLCURCUMIN]	inactive	Non-toxic	Non-toxic	inactive	inactive	inactive				
inactive	inactive	4	COc1cc(/C=C/C(=O)CC(=O)/C=C/c2ccc(OC(=O)CNC34CC5CC(CC(C5)C3)C4)c(OC)c2)ccc1OC(=O)CNC12CC3CC(CC(C3)C1)C2		Non-toxic	Non-toxic			inactive	15		19.4	> 25
inactive	inactive	7.5	CCOc1cc(/C=C/C(=O)CC(=O)/C=C/c2ccc(O)c(OCC)c2)ccc1O [ETHYL CURCUMIN]		Non-toxic	Non-toxic			inactive	16		18	> 25
inactive	inactive	8	COc1cc(/C=C/C(=O)CC(=O)/C=C/c2ccc(OC(=O)c3cccs3)c(OC)c2)ccc1OC(=O)c1cccs1 [DI-O-(2-THIENOYL)CURCUMIN]	inactive	Non-toxic	Non-toxic	inactive	inactive	inactive				
inactive	inactive	4	CCOc1cc(/C=C/C(=O)CC(=O)/C=C/c2ccc(OC(=O)CNCCN(C)C)c(OCC)c2)ccc1OC(=O)CNCCN(C)C			Non-toxic	inactive	inactive	inactive		22	11.5	
inactive	inactive	23	CCOc1cc(/C=C/C(=O)CC(=O)/C=C/c2ccc(OC(=O)c3cccs3)c(OCC)c2)ccc1OC(=O)c1cccs1 [DI-O-(2-THIENOYL)ETHYLCURCUMIN]	inactive	Non-toxic	Non-toxic	inactive	inactive	inactive				
inactive	inactive	20	CCOc1cc(/C=C/C(=O)CC(=O)/C=C/c2ccc(OC(=O)CCCl)c(OCC)c2)ccc1OC(=O)CCCl [DI-O-CHLOROPROPIONYLETHYL CURCUMIN]	inactive	Non-toxic	Non-toxic	inactive	inactive	inactive				
inactive	inactive	2.1	CCOc1cc(/C=C/C(=O)CC(=O)/C=C/c2ccc(OC(=O)CCNC34CC5CC(CC(C5)C3)C4)c(OCC)c2)ccc1OC(=O)CCNC12CC3CC(CC(C3)C1)C2	inactive	Non-toxic	Non-toxic	inactive		inactive				15
inactive	inactive	19	COc1ccc2nc(NCCC(=O)Oc3ccc(/C=C/C(=O)CC(=O)/C=C/c4ccc(OC(=O)CCNc5nc6ccc(OC)cc6s5)c(OC)c4)cc3OC)sc2c1		Non-toxic	Non-toxic			inactive	23.8		23.8	> 25
inactive	inactive	3.4	CCOc1cc(/C=C/C(=O)CC(=O)/C=C/c2ccc(OC(=O)CNC34CC5CC(CC(C5)C3)C4)c(OCC)c2)ccc1OC(=O)CNC12CC3CC(CC(C3)C1)C2	inactive	Non-toxic	Non-toxic	inactive	inactive	inactive				

Structure (SMILES)	inhibition [3]	inhibition [6]	IC50 [7] [µM]	Activity (BT-549 [1])	Activity (LLC-PK1 [2])	Activity (Vero)	Activity (SK-MEL [4])	Activity (KB [5])	Activity (SK-OV-3)	IC50 (SK-MEL [8]) [µM]	IC50 (LLC-PK1 [9]) [µM]	IC50 (BT-549 [10]) [µM]	IC50 (KB [11]) [µM]
COc1cc(/C=C/C(=O)CC(=O)/C=C/c2ccc(OC(=O)CCl)c(OC)c2)ccc1OC(=O)CCl [DI-O-CHLOROACETYLCURCUMIN]	inactive	inactive	20		Non-toxic	Non-toxic			inactive	12.5		10	> 25
COc1cc(/C=C/C(=O)CC(=O)/C=C/c2ccc(OC(=O)CNCCCl)c(OC)c2)ccc1OC(=O)CNCCCl	inactive	inactive	0.35	inactive	Non-toxic	Non-toxic	inactive	inactive	inactive				
CCOc1cc(/C=C/C(=O)CC(=O)/C=C/c2ccc(OC(=O)CCl)c(OCC)c2)ccc1OC(=O)CCl [DI-O-CHLOROACETYLETHYL CURCUMIN]	inactive	inactive	12	inactive	Non-toxic	Non-toxic	inactive	inactive	inactive				
